This is an account of results in patent US20110160193A1, “New Benzothiazinone Derivatives and Their Use as Antibacterial Agents” (Leibniz Institute for Natural Product Research and …, priority 2006, published 2011).

One data set concerns M. vaccae IMET 1010670. As to the kind of experiment: MIC by micro broth dilution method in Mueller-Hinton broth (NCCLS). Type of data set: cell-based.
The next data set deals with M. fortuitum B. The description is as above. Format: cell-based.
The subject of data set [1] is Mycobacterium smegmatis SG 987. Described as above. Type of data set: cell-based.
Data set [2] relates to Mycobacterium tuberculosis H37Rv. As to the kind of experiment: Murine TB model, hematogenously disseminated tuberculosis. Type of data set: in vivo, BALB/c line mice. The conditions noted are these: 10 animals per group.
The nature of data set [3]: Toxicity after per os administration. The conditions noted are these: mice. Type of data set: in vivo. The procedure:
The compound of the invention (especially compound no 2=example 1 in the embodiments), is non toxic after per os administration of doses ranging up to 2000 mg/kg was the compound was well endured by animals in the first and 24 next coming hours after introducing. […] LD50 for compound 2 is >2000 mg/kg.

The test system of data set [4] is Mycobacterium tuberculosis clinical isolate 6341. As to the kind of experiment: MIC and MBC in liquid Shkolnikova medium / solid Lowenstein-Jensen medium. Type of data set: cell-based.
[5] abbreviates: Mycolicibacterium vaccae, IMET1010670.
Where [6] appears, read: Mycolicibacterium smegmatis, SG987.

Molecules are shown by their SMILES. In brackets after ≈: the same amount, converted by molar mass. Read-outs that look alike come from different tables or passages of the source.

A word on the MIC: it is the lowest concentration that inhibits growth of the organism. A word on the melting point: it is the temperature of the solid-liquid transition. A word on the LD50: it is the dose at which mortality reaches 50%.

For the compound `Cc1c([N+](=O)[O-])cc2c(=O)nc(N3CCC4(CC3)OCCO4)sc2c1[N+](=O)[O-]` [Compound 8, 2-(1,4-dioxa-8-azaspiro[4.5]dec-8-yl)-7-methyl-6,8-dinitro-1,3-benzothiazin-4-one], the melting point was 207 to 210 °C. It took 0.025 µg/mL (≈ 0.0612 µM) to inhibit growth in the data set with M. vaccae IMET 1010670 (setting [5]) (MIC). In the data set on M. fortuitum B (Mycolicibacterium fortuitum), this compound displayed an MIC of 0.025 µg/mL (≈ 0.0612 µM). Further, the lowest concentration to inhibit growth in data set [1] (setting [6]) (MIC) was 0.4 µg/mL (≈ 0.979 µM).
`CCOC1(OCC)CCN(c2nc(=O)c3cc([N+](=O)[O-])cc([N+](=O)[O-])c3s2)CC1` [Compound 6, 2-(4,4-diethoxypiperidin-1-yl)-6,8-dinitro-1,3-benzothiazin-4-one] showed a melting point of 179 to 181 °C.
Consider `NNC(=O)c1ccncc1` [Isoniazid, reference compound], for which the Survival of animals in data set [2] (day of treatment 1, 25 mg/kg) came to 10; in data set [2] (day of treatment 2, 25 mg/kg), 10; in data set [2] (day of treatment 3, 25 mg/kg) it was 10; in data set [2] (day of treatment 4, 25 mg/kg), 10; in data set [2] (day of treatment 5, 25 mg/kg), 10; in data set [2] (day of treatment 6, 25 mg/kg) it was 10. Also, the Survival of animals came to 10 in data set [2] (day of treatment 7, 25 mg/kg); 10 in data set [2] (day of treatment 8, 25 mg/kg); 10 in data set [2] (day of treatment 9, 25 mg/kg); 10 in data set [2] (day of treatment 10, 25 mg/kg); 10 in data set [2] (day of treatment 11, 25 mg/kg); 10 in data set [2] (day of treatment 12, 25 mg/kg). Besides, the Survival of animals turned out to be 10 in data set [2] (day of treatment 13, 25 mg/kg); 10 in data set [2] (day of treatment 14, 25 mg/kg); 10 in data set [2] (day of treatment 15, 25 mg/kg); 10 in data set [2] (day of treatment 16, 25 mg/kg); 10 in data set [2] (day of treatment 17, 25 mg/kg); 10 in data set [2] (day of treatment 18, 25 mg/kg). Further, the Survival of animals in data set [2] (day of treatment 19, 25 mg/kg) amounted to 10; in data set [2] (day of treatment 20, 25 mg/kg) it was 10; in data set [2] (day of treatment 21, 25 mg/kg), 10; in data set [2] (day of treatment 22, 25 mg/kg) it was 10; in data set [2] (day of treatment 23, 25 mg/kg), 10; in data set [2] (day of treatment 24, 25 mg/kg), 10. Besides, the Survival of animals in data set [2] (day of treatment 25, 25 mg/kg) turned out to be 10; in data set [2] (day of treatment 26, 25 mg/kg), 10; in data set [2] (day of treatment 27, 25 mg/kg), 100%.
`N#Cc1cc([N+](=O)[O-])c2sc(N3CCC4(CC3)OCCO4)nc(=O)c2c1` [Compound 9, 2-(1,4-dioxa-8-azaspiro[4.5]dec-8-yl)-8-nitro-4-oxo-1,3-benzothiazine-6-carbonitrile]: the melting point was 217 to 220 °C.
In the case of `CC1COC2(CCN(c3nc(=O)c4cc(C(F)(F)F)cc([N+](=O)[O-])c4s3)CC2)O1` (stereo not drawn) [Compound 2, 2-(2-methyl-1,4-dioxa-8-azaspiro[4.5]dec-8-yl)-8-nitro-6-(trifluoro-methyl)-1,3-benzothiazin-4-one], in data set [3] (doses ranging up to 2000 mg/kg, 7 days of investigations), the “Toxicity after per os administration” value is reported as “non toxic”. Moreover, in data set [3] (per os), the LD50 is recorded as over 2000 mg/kg. For the same compound, the Survival of animals in data set [2] (day of treatment 1, 12 mg/kg) turned out to be 10; in data set [2] (day of treatment 1, 25 mg/kg), 10; in data set [2] (day of treatment 2, 12 mg/kg) it was 10; in data set [2] (day of treatment 2, 25 mg/kg) it was 10; in data set [2] (day of treatment 3, 12 mg/kg), 10; in data set [2] (day of treatment 3, 25 mg/kg), 10. The Survival of animals was 10 in data set [2] (day of treatment 4, 12 mg/kg); 10 in data set [2] (day of treatment 4, 25 mg/kg); 10 in data set [2] (day of treatment 5, 12 mg/kg); 10 in data set [2] (day of treatment 5, 25 mg/kg); 10 in data set [2] (day of treatment 6, 12 mg/kg); 10 in data set [2] (day of treatment 6, 25 mg/kg). Also, the Survival of animals in data set [2] (day of treatment 7, 12 mg/kg) came to 10; in data set [2] (day of treatment 7, 25 mg/kg), 10; in data set [2] (day of treatment 8, 12 mg/kg), 10; in data set [2] (day of treatment 8, 25 mg/kg), 10; in data set [2] (day of treatment 9, 12 mg/kg) it was 10; in data set [2] (day of treatment 9, 25 mg/kg), 10. The Survival of animals in data set [2] (day of treatment 10, 12 mg/kg) amounted to 10; in data set [2] (day of treatment 10, 25 mg/kg) it was 10; in data set [2] (day of treatment 11, 12 mg/kg), 10; in data set [2] (day of treatment 11, 25 mg/kg) it was 10; in data set [2] (day of treatment 12, 12 mg/kg) it was 10; in data set [2] (day of treatment 12, 25 mg/kg), 10. Further, the Survival of animals was determined as 10 in data set [2] (day of treatment 13, 12 mg/kg); 10 in data set [2] (day of treatment 13, 25 mg/kg); 10 in data set [2] (day of treatment 14, 12 mg/kg); 10 in data set [2] (day of treatment 14, 25 mg/kg); 10 in data set [2] (day of treatment 15, 12 mg/kg); 10 in data set [2] (day of treatment 15, 25 mg/kg). The Survival of animals in data set [2] (day of treatment 16, 12 mg/kg) is on record as 10; in data set [2] (day of treatment 16, 25 mg/kg), 10; in data set [2] (day of treatment 17, 12 mg/kg) it was 10; in data set [2] (day of treatment 17, 25 mg/kg) it was 10; in data set [2] (day of treatment 18, 12 mg/kg), 10; in data set [2] (day of treatment 18, 25 mg/kg), 10. Besides, the Survival of animals was 10 in data set [2] (day of treatment 19, 12 mg/kg); 10 in data set [2] (day of treatment 19, 25 mg/kg); 10 in data set [2] (day of treatment 20, 12 mg/kg); 10 in data set [2] (day of treatment 20, 25 mg/kg); 10 in data set [2] (day of treatment 21, 12 mg/kg); 10 in data set [2] (day of treatment 21, 25 mg/kg). For the same compound, the Survival of animals in data set [2] (day of treatment 22, 12 mg/kg) came out at 10; in data set [2] (day of treatment 22, 25 mg/kg), 10; in data set [2] (day of treatment 23, 12 mg/kg) it was 10; in data set [2] (day of treatment 23, 25 mg/kg), 10; in data set [2] (day of treatment 24, 12 mg/kg) it was 10; in data set [2] (day of treatment 24, 25 mg/kg) it was 10. The Survival of animals in data set [2] (day of treatment 25, 12 mg/kg) is recorded as 10; in data set [2] (day of treatment 25, 25 mg/kg) it was 10; in data set [2] (day of treatment 26, 12 mg/kg) it was 10; in data set [2] (day of treatment 26, 25 mg/kg), 10; in data set [2] (day of treatment 27, 12 mg/kg) it was 100%; in data set [2] (day of treatment 27, 25 mg/kg) it was 100%.
Turning to `CC1OC2(CCN(c3nc(=O)c4cc(C(F)(F)F)cc([N+](=O)[O-])c4s3)CC2)OC1C` (stereo not drawn) [Compound 5, 2-(2,3-dimethyl-1,4-dioxa-8-azaspiro[4.5]dec-8-yl)-8-nitro-6-(trifluoromethyl)-1,3-benzothiazin-4-one], in data set [4], it took 0.39 µg/mL (≈ 0.876 µM) to inhibit growth (MIC).
`O=c1nc(N2CCC3(CC2)OCCO3)sc2c([N+](=O)[O-])cc([N+](=O)[O-])cc12` [Compound 3, 2-(1,4-dioxa-8-azaspiro[4.5]dec-8-yl)-6,8-dinitro-1,3-benzothiazin-4-one] came in with a melting point of 271 to 273 °C. The compound further came in with an MIC against M. vaccae IMET 1010670 (setting [5]) of 0.0015 µg/mL (≈ 0.0038 µM). The compound also registered an MIC against M. fortuitum B (Mycolicibacterium fortuitum) of 0.006 µg/mL (≈ 0.0152 µM). Further, the MIC in data set [1] (setting [6]) was 0.2 µg/mL (≈ 0.507 µM).
On to `CC1COC2(CCN(c3nc(=O)c4cc([N+](=O)[O-])cc([N+](=O)[O-])c4s3)CC2)O1` (stereo not drawn) [Compound 4, 2-(2-methyl-1,4-dioxa-8-azaspiro[4.5]decyl)-6,8-dinitro-1,3-benzothiazin-4-one], for which the MIC against M. vaccae IMET 1010670 (M. vaccae) was determined as 0.003 µg/mL (≈ 0.00735 µM); in the data set on M. fortuitum B (M. fortuitum), 0.003 µg/mL (≈ 0.00735 µM); in data set [1] (M. smegmatis), 0.2 µg/mL (≈ 0.49 µM).
`N#Cc1cc([N+](=O)[O-])c2sc(N3CCC4(CC3)OCCCO4)nc(=O)c2c1` [Compound 11, 2-(1,5-dioxa-9-azaspiro[5.5]undec-9-yl)-8-nitro-4-oxo-1,3-benzothiazine-6-carbonitrile]: the melting point fell in the range of 230 to 232 °C. Also, in the data set with M. vaccae IMET 1010670 (Mycolicibacterium vaccae, IMET1010670, M. vaccae, read-out: MIC), the minimum inhibitory concentration (MIC) stood at 0.00625 µg/mL (≈ 0.0161 µM). Besides, the MIC with M. fortuitum B (Mycolicibacterium fortuitum, M. fortuitum, read-out: MIC) amounted to 0.025 µg/mL (≈ 0.0644 µM). Also, the MIC in data set [1] (Mycolicibacterium smegmatis, SG987, M. smegmatis, read-out: MIC) came out at 0.05 µg/mL (≈ 0.129 µM).
`O=c1nc(N2CCC3(CC2)OCCCCO3)sc2c([N+](=O)[O-])cc([N+](=O)[O-])cc12` [Compound 7, 2-(7,12-dioxa-3-azaspiro[5.6]dodec-3-yl)-6,8-dinitro-1,3-benzothiazin-4-one] returned a melting point of 193 to 195 °C. Besides, in the data set with M. vaccae IMET 1010670 (setting [5]), the minimal inhibitory concentration (MIC) worked out at 0.003 µg/mL (≈ 0.0071 µM). For the same compound, inhibition of growth in the data set on M. fortuitum B (Mycolicibacterium fortuitum) (MIC) required 0.003 µg/mL (≈ 0.0071 µM). This compound also came in with a minimum inhibitory concentration (MIC) in data set [1] (setting [6]) of 0.78 µg/mL (≈ 1.85 µM).
